Data from patent US10251865B2, “Method of activating regulatory T cells with alpha-2B adrenergic receptor agonists” (Allergan, Inc., priority 2010, dated 2019).

Columns and labels:
IL-2 = IL-2 levels in tissues from SNL rats (Luminex cytokine analysis); assay type: in vivo, rat; settings: for IL-2 level, Ipsilateral DRGL4 / IL-2 level, Ipsilateral DRGL5, L6 / IL-2 level, Ipsilateral spinal cord / IL-2 level, Serum: 2.4 mg/kg/day via osmotic minipump, mean ± SEM
Protocol: (§1) The SNL (or Chung) Model in the rat is an accepted standard animal model of neuropathic pain and is thought to mimic the human causalgia condition with respect to symptoms (guarding behavior, mechanical allodynia) and alleviation by pharmacological agents. […] The SNL Model is performed by tightly ligating the L-5 and L-6 spinal nerves, which produces tactile allodynia or sensitivity to light touch as described (Kim and Chung, 1992). Male sprague-dawley rats (100-120 grams; Charles River, Wilmington, Mass.) were anesthetized through inhalation of an isoflurane/oxygen mix. The surgical site was shaved and prepared with betadine. An incision was made from the thoracic vertebra XIII toward down the sacrum. The muscle was separated from the spinal vertebra (left side) at the L4-S2 levels. The L6 vertebra was located and then the transverse process was carefully removed with a small rongeur to visually identify the L4-L6 spinal nerves. The L5 and L6 spinal nerves was isolated and tightly ligated with 6-0 silk thread. A complete homeostasis was confirmed and then the wound was sutured. The duration of the surgery was approximately 20 minutes. A small amount of antibiotic ointment was applied to the incised area and the animals were transferred to a plastic recovery cage under a regulated heat-temperature lamp. Animals were not given any topical or local anesthetics post-operatively because they will inhibit the development of the pain syndrome, which is the phenomenon to be studied.
Compound A was formulated in 50% DMSO (Sigma, St. Louis, Mo.). This solution was loaded into the osmotic minipumps (Model 1007D, Alzet Corp., Palo Alto, Calif.) set to deliver the drug at a rate of 0.5 ul/hr resulting in a final dose of 2.4 mg/kg/day. The vehicle for these studies is 50% DMSO administered via osmotic minipumps at a rate of 0.5 ul/hr/kg.
The levels of cytokines were measured with a sensitive, fluorescent multiplex immunobead assay (Luminex; Biosource-Invitrogen, Carlsbad, Calif.). 9 plex rat cytokine/chemokine (RCYTO-80K-09) panel from Millipore was used. Cytokine levels in samples were analyzed by using the corresponding Millipore cytokine Beadmate pairs. For the Luminex assay, a 96-well filter plate (Millipore) was pre-wetted with 25 μl of Beadlyte cytokine assay buffer. A vacuum manifold (Millipore, Billerica, Mass.) was used to aspirate the buffer from the wells. 25 μl of sample was placed in each well. The beads (25 μl) were pipetted into the wells. Standard curves for each cytokine were generated in duplicate by placing 25 μl of the appropriate dilution of standards purchased from Millipore. The plate was incubated overnight with gentle shaking in the dark at 4° C. Beads were washed with Beadlyte cytokine assay buffer (Millipore) and wash buffer was eliminated using a vacuum manifold. 25 μl of the appropriate biotin-conjugated secondary antibody (Millipore) was added to each well for 90 minutes at room temperature with gentle shaking. Beads were incubated with Beadlyte streptavidin-phycoerythrin (1:25 dilution in Beadlyte assay buffer) for 30 minutes at room temperature with gentle shaking. Beads were washed, resuspended in 125 μl of Beadlyte buffer, and analyzed by Luminex 100 instrument (Luminex Corporation, Austin, Tex.). The mean fluorescence intensities obtained from 50 beads per cytokine minimum were analyzed using Upstate Beadview software. Standard curves were generated (8 data points including a zero standard run in duplicate) using a four- or five-parametric logistic curve. R-squared values were between 0.99 and 1. Data are expressed in pg/ml or ng/ml values.

[1] = tested on: SNL Rat Model of Allodynic Neuropathic Pain; assay: Allodynia reversal (Von Frey) in the SNL Rat Model of Allodynic Neuropathic Pain; assay type: in vivo; settings: SNL rats, 3 mg/kg BID SC alone
Protocol: as §1
The allodynia is quantitated in the animals having received the Chung surgery by stimulation with a series of 8 Von Frey hairs on the mid planter area of the surgical hind paw in the up-down manner as described in the literature (Dixon, 1980). Von Frey hairs are applied in an up-down manner depending on the response until the 50% threshold is established. The Von Frey hairs are applied to the plantar surface of the surgical paw with just enough force to bend them. A positive response is recorded if the paw is sharply withdrawn. Eight Von Frey hairs were used 3.61, 3.84, 4.08, 4.31, 4.56, 4.74, 4.93 and 5.18 yielding a gram force of 0.25-15 grams.
[formula] • Mean±SEM: • Mean=average of allodynia reversals • SEM=STDEV/SQ ROOT of n
Testing with compounds is done 2-3 weeks after surgery to establish stable allodynia. In all experimental animals, baseline measurements were taken prior to drug administration and then at 24 hours and 5-23 days post dosing with Alzet osmotic minipump. The investigator was blinded to the identity of the drug groups. The % allodynia reversal is calculated as: [(Postdrug threshold−Predrug threshold)/(15-Predrug threshold)]×100.
Compound B was formulated in 50% DMSO (dimethyl sulfoxide; Sigma, St. Louis, Mo.). This solution was dosed orally TID at a dose of 0.3 or 1 mg/kg. For dosing in the osmotic minipumps (Model 1007D, Alzet Corp., Palo Alto, Calif.) the compound was loaded onto the pumps set to deliver a final dose of either 1 or 3 mg/kg/day. The vehicle for these studies is 50% DMSO.
Compound C was formulated first in 100% DMSO (Sigma, St. Louis, Mo.), then diluted down in 30% DMSO for a 10 mg/ml solution; 15% DMSO for a 3 mg/ml solution and further dilutions were made in water. The compound was dosed orally TID at a dose of either 0.3 or 1 mg/kg for a total daily dose of 1 or 3 mg/kg/day, respectively.

[2] = tested on: SNL Rat Model of Allodynic Neuropathic Pain; settings: background statement on the model, cited from earlier work
[3] = Table 3 study, mean % MPE ± SEM

Compound: OCCNC(=S)NCc1cccc(Cl)c1F [Compound A]
- IL-2 level, Ipsilateral DRGL4 (IL-2; 24 hours): 101.63 ± 20.55 pg/mL
- IL-2 level, Ipsilateral DRGL5, L6 (IL-2; 24 hours): 211 ± 33.72 pg/mL
- IL-2 level, Ipsilateral spinal cord (IL-2; 24 hours): 345 ± 19.34 pg/mL
- IL-2 level, Serum (IL-2; 24 hours): 978 ± 77.13 pg/mL
- IL-2 level, Ipsilateral DRGL4 (IL-2; 5 days): 69.52 ± 9.42 pg/mL
- IL-2 level, Ipsilateral DRGL5, L6 (IL-2; 5 days): 138.35 ± 22.59 pg/mL
- IL-2 level, Ipsilateral spinal cord (IL-2; 5 days): 351.75 ± 17.19 pg/mL
- IL-2 level, Serum (IL-2; 5 days): 380.25 ± 61.67 pg/mL
- spinal nerve ligation surgery-induced increase of IL-2 levels (IL-2; result in words): attenuated

Compound: C=CC[C@@H]1/C=C(\C)C[C@H](C)C[C@H](OC)[C@H]2O[C@@](O)(C(=O)C(=O)N3CCCC[C@H]3C(=O)O[C@H](/C(C)=C/[C@@H]3CC[C@@H](O)[C@H](OC)C3)[C@H](C)[C@@H](O)CC1=O)[C@H](C)C[C@@H]2OC [FK506, reference compound]
- % Allodynia Reversal 24 hr post ([1]; Table 2 study): −5.77 ± 3.43%
- % Allodynia Reversal 7 day post ([1]; Table 2 study): −6.39 ± 4.85%
- % Allodynia Reversal 24 hr post [1, 3]: −0.53 ± 6.21%
- % Allodynia Reversal 23 day post [1, 3]: 2.01 ± 5.86%

Compound: NCC1(CC(=O)O)CCCCC1 [Gabapentin]
- alleviation of allodynia ([2]; 30 mg/kg p.o.): 50%

Compound: CN1CC[C@]23c4c5ccc(O)c4O[C@H]2[C@@H](O)C=C[C@H]3[C@H]1C5 [morphine]
- alleviation of tactile allodynia [2]: does not alleviate
